Assay results published in ChEMBL document CHEMBL3763031, “Design, synthesis and biological evaluation of monobactams as antibacterial agents against gram-negative bacteria” (2016).
Values after ≈ are worked out from the molar mass of the structure shown.

Key:
Pseudomonas aeruginosa [1] = assay: Antibacterial activity against BL positive Pseudomonas aeruginosa 27853 after 18 hrs by agar dilution assay; assay type: functional; conditions: Pseudomonas aeruginosa, 27853, 18 h
Klebsiella pneumoniae [2] = assay: Antibacterial activity against NDM-1 positive Klebsiella pneumoniae BAA-2146 after 18 hrs by agar dilution assay; assay type: functional; conditions: BAA-2146, 18 h
Klebsiella aerogenes = assay: Antibacterial activity against beta-lactamase producing Enterobacter aerogenes 45102 after 18 hrs by agar dilution assay; assay type: functional; conditions: Klebsiella aerogenes, 45102, 18 h
Enterobacter cloacae = assay: Antibacterial activity against beta-lactamase producing Enterobacter cloacae 45301 after 18 hrs by agar dilution assay; assay type: functional; conditions: Enterobacter cloacae, 45301, 18 h
Pseudomonas aeruginosa [3] = assay: Antibacterial activity against BL positive Pseudomonas aeruginosa PAO1 after 18 hrs by agar dilution assay; assay type: functional; conditions: PAO1, 18 h
Morganella morganii = assay: Antibacterial activity against beta-lactamase producing Morganella morganii 25830 after 18 hrs by agar dilution assay; assay type: functional; conditions: Morganella morganii, 25830, 18 h
Klebsiella pneumoniae [4] = assay: Antibacterial activity against ESBL negative Klebsiella pneumoniae 09-8 after 18 hrs by agar dilution assay; assay type: functional; conditions: 09-8, 18 h
Escherichia coli [5] = assay: Antibacterial activity against ESBL negative Escherichia coli 09-20 after 18 hrs by agar dilution assay; assay type: functional; conditions: 09-20, 18 h
Providencia rettgeri = assay: Antibacterial activity against Providencia rettgeri 31052 after 18 hrs by agar dilution assay; assay type: functional; conditions: Providencia rettgeri, 31052, 18 h
Pseudomonas aeruginosa [6] = assay: Antibacterial activity against BL positive Pseudomonas aeruginosa 09-14 after 18 hrs by agar dilution assay; assay type: functional; conditions: 09-14, 18 h
Citrobacter freundii = assay: Antibacterial activity against beta-lactamase producing Citrobacter freundii 43864 after 18 hrs by agar dilution assay; assay type: functional; conditions: Citrobacter freundii, 43864, 18 h
Escherichia coli [7] = assay: Antibacterial activity against ESBL negative Escherichia coli 25922 after 18 hrs by agar dilution assay; assay type: functional; conditions: Escherichia coli, 25922, 18 h
Salmonella typhi = assay: Antibacterial activity against beta-lactamase producing Salmonella typhi H901 after 18 hrs by agar dilution assay; assay type: functional, Salmonella enterica subsp. enterica serovar Typhi; conditions: Salmonella enterica, H901, 18 h
Klebsiella pneumoniae [8] = assay: Antibacterial activity against ESBL positive Klebsiella pneumoniae 700603 after 18 hrs by agar dilution assay; assay type: functional; conditions: Klebsiella pneumoniae, 700603, 18 h
Klebsiella pneumoniae [9] = assay: Antibacterial activity against ESBL positive Klebsiella pneumoniae 09-25 after 18 hrs by agar dilution assay; assay type: functional; conditions: 09-25, 18 h
Proteus mirabilis = assay: Antibacterial activity against beta-lactamase producing Proteus mirabilis 09-1 after 18 hrs by agar dilution assay; assay type: functional; conditions: 09-1, 18 h
Proteus vulgaris = assay: Antibacterial activity against beta-lactamase producing Proteus vulgaris 29905 after 18 hrs by agar dilution assay; assay type: functional; conditions: Proteus vulgaris, 29905, 18 h
Serratia marcescens = assay: Antibacterial activity against beta-lactamase producing Serratia marcescens 41002 after 18 hrs by agar dilution assay; assay type: functional; conditions: Serratia marcescens, 41002, 18 h
Escherichia coli [10] = assay: Antibacterial activity against ESBL positive Escherichia coli 09-1 after 18 hrs by agar dilution assay; assay type: functional; conditions: 09-1, 18 h
Klebsiella pneumoniae [11] = assay: Antibacterial activity against ESBL negative Klebsiella pneumoniae 7 after 18 hrs by agar dilution assay; assay type: functional; conditions: Klebsiella pneumoniae, 7, 18 h
Escherichia coli [12] = assay: Antibacterial activity against ESBL negative Escherichia coli 1515 after 18 hrs by agar dilution assay; assay type: functional; conditions: Escherichia coli, 1515, 18 h
Escherichia coli [13] = assay: Antibacterial activity against Escherichia coli BL21 by microbroth dilution assay; assay type: functional
Escherichia coli [14] = assay: Antibacterial activity against acrAB and acrEF knock-out Escherichia coli BL21 by microbroth dilution assay; assay type: functional

| Structure (SMILES) | MIC (Pseudomonas aeruginosa [1]) [µg/mL] | MIC (Klebsiella pneumoniae [2]) [µg/mL] | MIC (Klebsiella aerogenes) [µg/mL] | MIC (Pseudomonas aeruginosa [3]) [µg/mL] | MIC (Morganella morganii) [µg/mL] | MIC (Klebsiella pneumoniae [4]) [µg/mL] | MIC (Escherichia coli [5]) [µg/mL] | MIC (Providencia rettgeri) [µg/mL] | MIC (Pseudomonas aeruginosa [6]) [µg/mL] | MIC (Citrobacter freundii) [µg/mL] | MIC (Escherichia coli [7]) [µg/mL] | MIC (Salmonella typhi) [µg/mL] | MIC (Klebsiella pneumoniae [8]) [µg/mL] | MIC (Klebsiella pneumoniae [9]) [µg/mL] | MIC (Proteus mirabilis) [µg/mL] | MIC (Proteus vulgaris) [µg/mL] | MIC (Serratia marcescens) [µg/mL] | MIC (Escherichia coli [10]) [µg/mL] | MIC (Klebsiella pneumoniae [11]) [µg/mL] | MIC (Escherichia coli [12]) [µg/mL] | also measured |
| --- | --- | --- | --- | --- | --- | --- | --- | --- | --- | --- | --- | --- | --- | --- | --- | --- | --- | --- | --- | --- | --- |
| Cn1cc(CO/N=C(\C(=O)N[C@@H]2C(=O)N(S(=O)(=O)O)C2(C)C)c2csc(N)n2)nn1 | > 64 | 64 (≈ 140 µM) | 8 (≈ 17.4 µM) | > 64 | 0.125 (≈ 0.273 µM) | 8 (≈ 17.4 µM) | 8 (≈ 17.4 µM) | 0.06 (≈ 0.131 µM) | > 64 | 4 (≈ 8.72 µM) | 4 (≈ 8.72 µM) | > 64 | > 64 | 8 (≈ 17.4 µM) | 2 (≈ 4.36 µM) | 0.125 (≈ 0.273 µM) | 8 (≈ 17.4 µM) | 2 (≈ 4.36 µM) | 2 (≈ 4.36 µM) | 4 (≈ 8.72 µM) | MIC (Enterobacter cloacae): 2 µg/mL (≈ 4.36 µM) |
| C[C@H]1[C@H](NC(=O)/C(=N\OC(C)(C)C(=O)O)c2csc(N)n2)C(=O)N1S(=O)(=O)O [AZTREONAM] | 2 (≈ 4.59 µM) | 256 (≈ 588 µM) | ≤ 0.03 | 0.5 (≈ 1.15 µM) | 0.125 (≈ 0.287 µM) | 16 (≈ 36.7 µM) | > 256 | ≤ 0.03 | 4 (≈ 9.19 µM) | 0.125 (≈ 0.287 µM) | 0.125 (≈ 0.287 µM) | ≤ 0.03 | 32 (≈ 73.5 µM) | 32 (≈ 73.5 µM) | ≤ 0.03 | ≤ 0.03 | 0.125 (≈ 0.287 µM) | 8 (≈ 18.4 µM) | ≤ 0.03 | 0.125 (≈ 0.287 µM) |  |
| C[C@H]1[C@H](NC(=O)/C(=N\OCc2cn(C)nn2)c2csc(N)n2)C(=O)N1S(=O)(=O)O (relative stereo) | > 128 | > 128 | 2 (≈ 4.5 µM) | > 128 | 0.5 (≈ 1.12 µM) | > 128 | > 128 | 0.125 (≈ 0.281 µM) | > 128 | 4 (≈ 9 µM) | 4 (≈ 9 µM) | > 128 | > 128 | > 128 | 1 (≈ 2.25 µM) | 0.5 (≈ 1.12 µM) | 2 (≈ 4.5 µM) | 4 (≈ 9 µM) | 1 (≈ 2.25 µM) | 4 (≈ 9 µM) | MIC (Enterobacter cloacae): 1 µg/mL (≈ 2.25 µM) |
| CN(C)[C@@H]1C(O)=C(C(N)=O)C(=O)[C@@]2(O)C(O)=C3C(=O)c4c(O)cccc4[C@@](C)(O)[C@H]3C[C@@H]12 [TETRACYCLINE] |  |  |  |  |  |  |  |  |  |  |  |  |  |  |  |  |  |  |  |  | MIC (Escherichia coli [13]): 0.5 µg/mL (≈ 1.13 µM); MIC (Escherichia coli [14]): 0.25 µg/mL (≈ 0.563 µM) |
| CC1(C)[C@H](NC(=O)/C(=N\OCc2cn(CC3CC3)nn2)c2csc(N)n2)C(=O)N1S(=O)(=O)O | > 64 | 64 (≈ 128 µM) | 32 (≈ 64.2 µM) | > 64 | > 64 | 16 (≈ 32.1 µM) | 16 (≈ 32.1 µM) | ≤ 0.03 | > 64 | 8 (≈ 16 µM) | 16 (≈ 32.1 µM) | 64 (≈ 128 µM) | > 64 | 32 (≈ 64.2 µM) | > 64 | 1 (≈ 2.01 µM) | 32 (≈ 64.2 µM) | 16 (≈ 32.1 µM) | 16 (≈ 32.1 µM) | 16 (≈ 32.1 µM) | MIC (Enterobacter cloacae): 8 µg/mL (≈ 16 µM) |
| CC1(C)[C@H](NC(=O)/C(=N\OCc2ccccc2)c2csc(N)n2)C(=O)N1S(=O)(=O)O | > 64 | > 64 | > 64 | > 64 | > 64 | > 64 | > 64 | > 64 | > 64 | > 64 | > 64 | > 64 | > 64 | > 64 | > 64 | > 64 | > 64 | > 64 | > 64 | > 64 | MIC (Enterobacter cloacae): > 64 µg/mL |
| CCN(CC)CC.C[C@H]1[C@H](NC(=O)/C(=N\OCc2ccc(C(=O)N/N=C/c3ccc4ccccc4c3O)cc2)c2csc(N)n2)C(=O)N1S(=O)(=O)O | 16 | > 64 | 8 | 16 | 0.06 | 32 | 64 | ≤ 0.03 | 16 | 8 | 4 | 8 | > 64 | > 64 | 1 | 1 | 8 | 64 | 2 | 0.25 | MIC (Enterobacter cloacae): 4 µg/mL |
| CC1(C)[C@H](NC(=O)/C(=N\OCc2cn(CC(=O)O)nn2)c2csc(N)n2)C(=O)N1S(=O)(=O)O | > 64 | > 64 | 4 (≈ 7.96 µM) | > 64 | > 64 | 1 (≈ 1.99 µM) | 8 (≈ 15.9 µM) | ≤ 0.03 | > 64 | 2 (≈ 3.98 µM) | 2 (≈ 3.98 µM) | > 64 | > 64 | 32 (≈ 63.7 µM) | 2 (≈ 3.98 µM) | 0.125 (≈ 0.249 µM) | 2 (≈ 3.98 µM) | 2 (≈ 3.98 µM) | 1 (≈ 1.99 µM) | 32 (≈ 63.7 µM) | MIC (Enterobacter cloacae): 1 µg/mL (≈ 1.99 µM) |
| CCN(CC)CC.Cc1ccc(O)c(/C=N/NC(=O)c2ccc(CO/N=C(\C(=O)N[C@@H]3C(=O)N(S(=O)(=O)O)[C@H]3C)c3csc(N)n3)cc2)c1 (relative stereo) | 32 | > 64 | 8 | 32 | 0.12 | 32 | 64 | 0.06 | 32 | 8 | 8 | 8 | 64 | > 64 | 2 | 1 | 8 | 64 | 2 | 0.25 | MIC (Enterobacter cloacae): 4 µg/mL |
| CC1(C)[C@H](NC(=O)/C(=N\OCc2ccc(C(=O)O)cc2)c2csc(N)n2)C(=O)N1S(=O)(=O)O | > 64 | 32 (≈ 64.3 µM) | 8 (≈ 16.1 µM) | > 64 | > 64 | 2 (≈ 4.02 µM) | 2 (≈ 4.02 µM) | ≤ 0.03 | > 64 | 2 (≈ 4.02 µM) | 4 (≈ 8.04 µM) | 32 (≈ 64.3 µM) | > 64 | 8 (≈ 16.1 µM) | 8 (≈ 16.1 µM) | 0.06 (≈ 0.121 µM) | 4 (≈ 8.04 µM) | 4 (≈ 8.04 µM) | 2 (≈ 4.02 µM) | 8 (≈ 16.1 µM) | MIC (Enterobacter cloacae): 2 µg/mL (≈ 4.02 µM) |
